Experimental data reported in patent US20090181010A1, “Arginase II: a target for the prevention of atherosclerosis” (The Johns Hopkins University, priority 2006, published 2009).
Numbered stars: 1 amine (or outer) side, 2 acyl side, 3 side chain; on linkers, the order of the positions; unused ones are H or OH. Bridge positions count the residues as written; N and C are the ends. Square brackets hold non-standard residues; d marks the D form. Peptide text beside a SMILES is read from it. I, II: the chains in the order shown. Actinocin(9to1) = Cc1c2oc3c(C)ccc(C(=O)[*:1])c3nc-2c(C(=O)[*:2])c(N)c1=O; NMeV = CN[C@H](C(=O)O)C(C)C; Sar = CNCC(=O)O

Tests used:
[1] = test system: NO production; assay: NO measurement (NOx, Griess reaction) in HAECs; type: cell-based, human
Procedure: (§1) Human aortic endothelial cells (HAECs) were purchased from Cascade Biologics (Portland, Oreg.) and maintained in Medium M200 containing low serum growth supplement according to the supplier's protocol. Confluent HAECs were incubated with starvation medium (M200 plus only 0.5% fetal bovine serum) for 24 hr prior to the experimental protocols.
(§2) NO was estimated as nitrate/nitrite (NOx) by Griess reaction after conversion of nitrate to nitrite by nitrate reductase, using the Nitric Oxide Assay Kit (Calbiochem). The concentration of NOx from cell lysates was expressed as nmol/mg proteins.

[2] = test system: arginase; assay: Arginase activity in rat aortic rings; settings: rat aortic rings E+, preincubation with BEC
Procedure: (§3) Cell lysates were prepared with lysis buffer (50 mM Tris-HCl, pH7.5, 0.1 mM EDTA and protease inhibitors) by brief vigorous vortexing for 30 min and incubation and centrifuging for 20 min at 14,000 g at 4° C. The supernatants are used for arginase activity as described previously^18. Arginase activity from aortic vessels was assayed as described above following homogenization in lysis buffer.

[3] = test system: NO production; assay: NO production in rat aortic rings; settings: rat aortic rings E+, pre-incubation with BEC
Procedure: FIGS. 7A-B depict arginase dependent endothelial dysfunction in OxLDL treated rat aorta. Arginase inhibition restores endothelial function and increases NO production in rat aortic rings. […] The increase in arginase activity was blocked by preincubation with BEC ([…], *p=0.0007, **p<0.0001 vs. untreated control; #p=0.0003 vs. OxLDL; n=5).
as §2

[4] = test system: Apo E knockout mice; assay: Aortic pulse wave velocity (vascular stiffness) in Apo E knockout mice; type: in vivo; settings: Apo E KO mice, HC diet
Excerpt: (§4) FIGS. 8A-B Arginase inhibition decreases vascular stiffness and restores endothelial function in Apo E knockout mice. 16 WT mice were randomized to receive a normal or high cholesterol (HC) diet. […] Aortic Pulse wave velocity (PWV) (measured by 20 MHz pulsed Doppler from arch to abdominal aorta (4 cm) was used to measure vascular stiffness before and after pump implanatation.

[5] = test system: arginase; assay: Aortic arginase activity in Apo E knockout mice; type: in vivo; settings: Apo E KO mice, BEC treated
Procedure: as §4, §3

[6] = test system: NO production; assay: Aortic NO production (griess method) in Apo E knockout mice; type: in vivo; settings: Apo E KO mice, BEC treated
[7] = target: T1, human arginase II (Homo sapiens, UniProt P78540); settings: cited from earlier work
T1 sequence (P78540 23-354): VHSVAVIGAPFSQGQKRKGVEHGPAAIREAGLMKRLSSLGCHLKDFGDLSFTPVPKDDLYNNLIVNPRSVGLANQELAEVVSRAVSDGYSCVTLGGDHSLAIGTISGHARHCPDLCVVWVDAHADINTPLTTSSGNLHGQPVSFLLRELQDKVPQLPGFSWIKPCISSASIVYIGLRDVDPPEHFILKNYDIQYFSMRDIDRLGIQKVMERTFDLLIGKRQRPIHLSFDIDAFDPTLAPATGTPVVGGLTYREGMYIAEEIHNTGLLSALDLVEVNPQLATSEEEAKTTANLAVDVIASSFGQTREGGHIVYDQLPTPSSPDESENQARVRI

[8] = test system: arginase; assay: Arginase activity assay in HAEC lysates; type: cell-based, human
Procedure: as §1, §3

[9] = test system: HAECs; assay: Immunofluorescence of arginase II and beta-tubulin in HAECs; type: cell-based, human; settings: HAEC, nocodazole 50 μM, 30 minutes
Procedure: HAECs were cultured on coverslips coated with 25 µg/ml human plasma fibronectin (Invitrogen). Cells were then fixed and permeabilized with 3% paraformaldehyde and 0.5% Triton X-100 in PBS for 2 minutes, followed by 20 minutes of 3% paraformaldehyde alone. Samples were prepared for immunofluorescence analysis by incubating with a rabbit polyclonal antisera against arginase II (Santa Cruz Biotechnology, 1:50) and a mouse monoclonal antibody against β-tubulin (BD Biosciences, 1:50) for 30 minutes at 37° C. They were then rinsed in tris-buffered saline and incubated with Cy5-conjugated anti-rabbit IgG and Cy3-conjugated anti-mouse IgG (Chemicon, Temecula, Calif.). Images were acquired using a Nikon TE-200 epifluorescence microscope (with a 60× objective, and collected using Openlab software (Improvision, Lexington, Mass.) and an internally cooled 12-bit CCD camera (CoolsnapHQ, Photometrics, Tucson, Ariz.).

[10] = test system: arginase II; assay: Quantitative PCR of arginase II expression in HAECs; type: cell-based, human; settings: HAEC
Procedure: Total RNA from Ox-LDL-stimulated HAEC was prepared using Trizol Reagent according to the supplier's protocol (Gibco). To exclude contamination with genomic DNA, total RNA was treated with RNase-free DNase (Roche). PCR reaction was performed in iCycler optical system (Bio-rad) using SYBR green PCR master mix. The reverse transcriptional PCR primers are as follows: Arginase I: Forward 5′-GGC AAG GTG GCA GAA GTC A-3′, Reverse 5′-TGGTTGTCAGTGGAGTGTTG-3′, size of PCR products=163 bp; Arginase II: Forward 5′-CTATCAGCACTGGATCTTGTTG-3′, Reverse 5′-GGGAGTAGGAAGTTGGTCATAG-3′, size of PCR products=156 bp. 18S rRNA gene (Forward 5′-CGGCGACGACCCATTCGAAC-3′, Reverse 5′-GAATCGAACCCTGATTCCCCGTC-3′, size of PCR product=99 bp) was amplified as a control.

[11] = test system: arginase II; assay: Western blot of arginase II protein in HAECs; type: cell-based, human; settings: HAEC, cycloheximide 10 μM co-incubation
Procedure: Transient transfection of arginase-SiRNA (Santa Cruz Biotechnology) was performed with Oligofectamine reagent according to instructions provided by the supplier (Invitrogen). In brief, 8 μL of Oligofectamine was added to 17 μL Opti-MEM I reduced serum medium (Gibco), incubated for 5 minutes at room temperature, mixed with 180 μL Opti-MEM medium containing different amount of SiRNA, and further incubated for 15 minutes. The SiRNA-Oligofectamine complex was then overlaid on cells (each well of a 6 well culture dish). After incubation for 6 h, endothelial growth medium containing 3 times serum was added for making normal growth medium of 1× serum concentration. Transfected cells were then further incubated for 36 hr and starved for 24 hr prior to experiments and then stimulated with OxLDL for additional 6 hours.
Cells were lysed in SDS sample buffer (62.5 mM Tris, pH6.8, 2% SDS, and 10% Glycerol) and then sonicated for 5 s to reduce sample viscosity. Each sample was resolved by 10% SDS-PAGE, transferred to PVDF membrane (Bio-rad), analysed with antibodies according to the supplier's protocol, and visualized with peroxidase and an enhanced-chemiluminescence system (Pierce). Normalization was performed using the anti-β-tubulin antibody (BD bioscience, 1:1,000). Densitometric analysis of bands was performed with NIH ImageJ program.

N[C@@H](CSCCB(O)O)C(=O)O [BEC, S-(2-boronoethyl)-L-cysteine]
effect on HAEC NOx production ([1]; BEC alone, no OxLDL): no effect | prevention of OxLDL-dependent decrease in NO ([1]; HAEC, BEC 10 μmol/L, all time points from 4 hrs): prevents | NOx production, OxLDL+BEC vs. control ([1]; HAEC, OxLDL 50 μg/ml + BEC 10 μmol/L, 4 hrs): 102% | NOx production ([1]; HAEC, OxLDL + BEC 10 μmol/L, 4 hrs, control 14.24±0.95): 14.58±0.94 nmol/mg proteins | OxLDL-induced increase in arginase activity [2]: blocked | vascular NO production following OxLDL treatment [3]: increased vascular NO production | Aortic pulse wave velocity (PWV) ([4]; BEC group, before pump implantation): 4.9±0.22 m/sec | Aortic pulse wave velocity (PWV) ([4]; after 4 weeks BEC (1 mg/mice) by osmotic infusion pump): 4.0±0.25 m/sec | aortic arginase activity [5]: significant decrease | aortic NO production [6]: restoration of NO production to WT | Ki [7]: 210 nM

COC(=O)Nc1nc2ccc(C(=O)c3cccs3)cc2[nH]1 [nocodazole]
arginase activity ([8]; nocodazole 5 μmol/L, control 40.4±7.63): 100.7±11.17 μmol Urea/mg protein/min | arginase activity ([8]; nocodazole 50 μmol/L, control 40.4±7.63): 134.3±0.28 μmol Urea/mg protein/min | arginase activity ([8]; nocodazole in combination with Ox-LDL): 141.9±7.07 μmol Urea/mg protein/min | NOS measurement ([1]; HAEC, nocodazole treatment): reciprocal decrease | arginase II localization (immunofluorescence) [9]: diffuse arginase localization

Cc1c2oc3c(C)ccc(C(=O)N[C@@H]4C(=O)N[C@H](C(C)C)C(=O)N5CCC[C@H]5C(=O)N(C)CC(=O)N(C)[C@@H](C(C)C)C(=O)O[C@@H]4C)c3nc-2c(C(=O)N[C@@H]2C(=O)N[C@H](C(C)C)C(=O)N3CCC[C@H]3C(=O)N(C)CC(=O)N(C)[C@@H](C(C)C)C(=O)O[C@@H]2C)c(N)c1=O [actinomysin D] (I: T[dV]P[Sar][NMeV] / II: T[dV]P[Sar][NMeV]; ester I:1-I:C, II:1-II:C; linker I:N-II:N via Actinocin(9to1))
arginase II expression (quantitative PCR), relative to control 1.0±0.06 ([10]; OxLDL 4 hrs + actinomysin D 10 μg/ml): 1.1±0.15 | block of OxLDL-induced arginase II expression ([10]; actinomysin D 10 μg/ml): completely blocked

C/C(=C\c1csc(C)n1)[C@@H]1C[C@@H]2O[C@]2(C)CCC[C@H](C)[C@H](O)[C@@H](C)C(=O)C(C)(C)[C@@H](O)CC(=O)O1 [epothilone B]
arginase activity ([8]; OxLDL + epothilone B 0.1 μmol/L): 73.55±2.82 μmol Urea/mg protein/min | endothelial NO production ([1]; HAEC, OxLDL + epothilone B 0.1 μmol/L): 8.05±0.47 nmol/mg proteins | basal endothelial cell NOx ([1]; HAEC, epothilone B alone): small but not statistically significant increase

C[C@@H]1C[C@@H]([C@H](O)CC2CC(=O)NC(=O)C2)C(=O)[C@@H](C)C1 [cycloheximide]
block of OxLDL-induced arginase II protein increase [11]: completely blocked
